According to patent publication US20090124645A1, “Novel Pyrimidine-2,4-Diamine Derivatives and their Use as Modulators of Small-Conductance Calcium-Activated Potassium Channels” (NeuroSearch A/S, priority 2005, published 2009):
Counter-ions that a name gives are not always drawn.

| melting point [°C] | Structure (SMILES) |
| --- | --- |
| 151 to 154 | CC(Nc1ccnc(NC(C)c2ccc(F)cc2)n1)c1ccc(F)cc1 (stereo not drawn) (as salt: HCl) [Example 5, N^2,N^4-Bis[1-(4-fluorophenyl)ethyl]pyrimidine-2,4-diamine] |
| 213 to 216 | Clc1ccc(CNc2ccnc(NCc3ccc(Cl)cc3)n2)cc1 (as salt: HCl) [Example 7, N^2,N^4-Bis(4-chlorobenzyl)pyrimidine-2,4-diamine] |
| 177.4 to 179.4 | Fc1ccc(CCNc2ccnc(NCCc3ccc(F)cc3)n2)cc1 (as salt: HCl) [Example 10, N^2,N^4-Bis[2-(4-fluorophenyl)ethyl]pyrimidine-2,4-diamine] |
| 172 | FC(F)(F)c1cccc(CNc2ccnc(NCc3cccc(C(F)(F)F)c3)n2)c1 (as salt: HCl) [Example 3, N^2,N^4-Bis[3-(trifluoromethyl)benzyl]pyrimidine-2,4-diamine] |
| 201 to 204 | Clc1ccc(CCNc2ccnc(NCCc3ccc(Cl)cc3)n2)cc1 (as salt: HCl) [Example 11, N^2,N^4-Bis[2-(4-chlorophenyl)ethyl]pyrimidine-2,4-diamine] |
| 167 to 170 | Clc1ccc(CNc2ccnc(NCc3ccc(Cl)c(Cl)c3)n2)cc1Cl (as salt: HCl) [Example 4, N^2,N^4-Bis(3,4-dichlorobenzyl)pyrimidine-2,4-diamine] |
